One test concerns the target T1, Human FIIa (Homo sapiens, UniProt P00734).
T1 construct: purchased Sigma
Put plainly: Determination of anti-factor IIa (FIIa) activity, synthetic substrate S-2238. In kind it is biochemical. To be noted: S-2238, 37° C., pH 8.4, read-out: Experimental Example 2: anti-FIIa activity, IC50.

The target in the next test is T2, Human FXa (Homo sapiens, UniProt P00742).
T2 construct: Human FXa [Enzyme research Laboratories (USA)] enzyme; purchased Enzyme Research Laboratories (USA)
Put plainly: Determination of anti-factor Xa (FXa) activity, synthetic substrate S-2222. The test is classed as biochemical. To be noted: S-2222, 37° C., pH 8.4, read-out: Experimental Example 1: anti-FXa activity, IC50. The procedure:
Determination of Anti-factor Xa (FXa) Activity
Human FXa [Enzyme research Laboratories (USA)] enzyme (40 μl, 0.16U/ml) and test compounds (40 l) adjusted to various concentrations were incubated in 0.1M Tris (Tris-hydroxymethyl-aminomethane) buffer (pH 8.4) containing 0.2M sodium chloride (herein to be referred to as 0.1 M tris-0.2M NaCl buffer) (40 μl) at 37° C. for 10 min. A synthetic substrate S-2222 (Daiichi Pure Chemical (Tokyo, Japan), 40 μl) adjusted to 0.8 mM was added and the mixture was incubated at 37° C. for 10 min. The reaction was stopped by addition of 60% acetic acid (40 μl) and absorbance at 405 nm was measured by Model 3550 (BIO-RAD). For the control, the solvent was used instead of the test compound.

pIC50: −log10 of the molar value. Where a name gives a salt, the structure may show the parent alone.

T2 sequence (P00742 235-488 limits assumed): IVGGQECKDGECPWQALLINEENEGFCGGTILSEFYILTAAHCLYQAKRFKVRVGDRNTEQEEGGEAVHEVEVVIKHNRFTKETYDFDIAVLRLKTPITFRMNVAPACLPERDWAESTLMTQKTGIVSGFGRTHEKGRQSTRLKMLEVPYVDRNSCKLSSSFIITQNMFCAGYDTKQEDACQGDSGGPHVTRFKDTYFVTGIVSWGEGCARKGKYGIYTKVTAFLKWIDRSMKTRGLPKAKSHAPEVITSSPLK
T2 sequence (P00742 41-179 partner limits assumed): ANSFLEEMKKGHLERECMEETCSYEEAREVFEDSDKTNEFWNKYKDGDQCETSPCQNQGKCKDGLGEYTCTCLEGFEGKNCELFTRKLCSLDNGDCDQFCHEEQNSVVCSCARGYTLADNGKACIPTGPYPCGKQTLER

As for `N=C(N)N1CCc2ccc(OCC3CCN(c4ccncc4)CC3)cc2C1` [Example 1, 7-[1-(Pyridin-4-yl)piperidin-4-ylmethoxy]-1,2,3,4-tetrahydroisoquinoline-2-carboxamidine Dihydrochloride], the pIC50 is less than 5.00 at Human FIIa and 7.22 on Human FXa.

Consider `N=C(N)N1CCc2ccc(OCC3CCN(c4ccnc5ccccc45)CC3)cc2C1` [Example 2, 7-[1-(Quinolin-4-yl)piperidin-4-ylmethoxy]-1,2,3,4-tetrahydroisoquinoline-2-carboxamidine Dihydrochloride], for which the pIC50 on Human FIIa is less than 5.00; at Human FXa, 6.40.

Regarding `N/C(=N/O)N1CCc2ccc(OCC3CCN(c4ccncc4)CC3)cc2C1` [Example 4, 7-[1-(Pyridin-4-yl)piperidin-4-ylmethoxy]-1,2,3,4-tetrahydroisoquinoline-2-carboxamide Oxime Dihydrochloride], the values for the negative-log IC50 (pIC50) at Human FIIa and at Human FXa were less than 5.00 and 6.22, respectively.

On to `CCOC(=O)C1(COc2ccc3c(c2)CN(C(=N)N)CC3)CCN(c2ccncc2)CC1` [Example 6, 4-(2-Amidino-1,2,3,4-tetrahydroisoquinolin-7-yloxymethyl)-1-(pyridin-4-yl)piperidine-4-carboxylic Acid Ethyl Ester Dihydrochloride], for which the negative logarithm of the IC50 (pIC50) on Human FIIa was less than 5.00; on Human FXa, 7.10.

`CCOC(=O)C1(COc2ccc3c(c2)CN(C(=N)N)CC3)CCN(c2cc(C)nc(C)c2)CC1` [Example 10, 4-(2-Amidino-1,2,3,4-tetrahydroisoquinolin-7-yloxymethyl)-1-(2,6-dimethylpyridin-4-yl)piperidine-4-carboxylic Acid Ethyl Ester Dihydrochloride]: the pIC50 at Human FIIa was less than 5.00; on Human FXa, 6.15.

On to `Cc1cc(N2CCC(COc3ccc4c(c3)CN(C(=N)N)CC4)(C(=O)O)CC2)cc(C)n1` [Example 11, 4-(2-Amidino-1,2,3,4-tetrahydroisoquinolin-7-yloxymethyl)-1-(2,6-dimethylpyridin-4-yl)piperidine-4-carboxylic Acid Dihydrochloride], for which the negative-log IC50 (pIC50) at Human FIIa was less than 5.00; at Human FXa, 6.52.

With `CCOC(=O)C1(COc2ccc3c(c2)CN(C(=N)N)CC3)CCN(c2ccnc(C)c2)CC1` [Example 12, 4-(2-Amidino-1,2,3,4-tetrahydroisoquinolin-7-yloxymethyl)-1-(2-methylpyridin-4-yl)piperidine-4-carboxylic Acid Ethyl Ester Dihydrochloride], the pIC50 at Human FXa was 6.22.

`Cc1cc(N2CCC(COc3ccc4c(c3)CN(C(=N)N)CC4)(C(=O)O)CC2)ccn1` [Example 13, 4-(2-Amidino-1,2,3,4-tetrahydroisoquinolin-7-yloxymethyl)-1-(2-methylpyridin-4-yl)piperidine-4-carboxylic Acid Dihydrochloride]: the pIC50 at Human FIIa was less than 5.00; at Human FXa it was 6.70.

As for `N=C(N)N1CCc2ccc(OCC3(C(=O)O)CCN(c4ccncn4)CC3)cc2C1` [Example 14, 4-(2-Amidino-1,2,3,4-tetrahydroisoquinolin-7-yloxymethyl)-1-(pyrimidin-4-yl)piperidine-4-carboxylic Acid Dihydrochloride], the pIC50 at Human FIIa was less than 5.00; on Human FXa, 7.00.

As for `CCOC(=O)C1(CCOc2ccc3c(c2)CN(C(=N)N)CC3)CCN(c2ccncc2)CC1` [Example 15, 4-[2-(2-Amidino-1,2,3,4-tetrahydroisoquinolin-7-yloxy)ethyl]-1-(pyridin-4-yl)piperidine-4-carboxylic Acid Ethyl Ester Dihydrochloride], at Human FXa, the pIC50 is 6.70.

For `N=C(N)N1CCc2ccc(OCCC3(C(=O)O)CCN(c4ccncc4)CC3)cc2C1` [Example 16, 4-[2-(2-Amidino-1,2,3,4-tetrahydroisoquinolin-7-yloxy)ethyl]-1-(pyridin-4-yl)piperidine-4-carboxylic Acid Dihydrochloride], the values for the pIC50 on Human FIIa and at Human FXa were less than 5.00 and 6.70, respectively.

For `N=C(N)N1CCc2ccc(OCC3CCN(CCO)CC3)cc2C1` [Example 21, 7-[1-(2-Hydroxyethyl)piperidin-4-ylmethoxy]-1,2,3,4-tetrahydroisoquinoline-2-carboxamidine Dihydrochloride], the pIC50 at Human FIIa is less than 5.00; on Human FXa, 6.15.

As for `N=C(N)N1CCc2ccc(OCC3CCN(Cc4ccncc4)CC3)cc2C1` [Example 22, 7-[1-(Pyridin-4-ylmethyl)piperidin-4-ylmethoxy-1,2,3,4-tetrahydroisoquinoline-2-carboxamidine Trihydrochloride], the pIC50 is less than 5.00 at Human FIIa and 6.10 at Human FXa.

Regarding `CC(=N)N1CCC(COc2ccc3c(c2)CN(C(=N)N)CC3)CC1` [Example 29, 7-(1-Acetimidoylpiperidin-4-ylmethoxy)-1,2,3,4-tetrahydroisoquinoline-2-carboxamidine Dihydrochloride], the pIC50 at Human FIIa was less than 5.00; at Human FXa it was 6.30.

In the case of `N=C(N)N1CCc2ccc(OCC3CCN(C(=N)Cc4ccccc4)CC3)cc2C1` [Example 30, 7-(1-Phenylacetimidoylpiperidin-4-ylmethoxy)-1,2,3,4-tetrahydroisoquinoline-2-carboxamidine Dihydrochloride], the pIC50 is less than 5.00 at Human FIIa and 6.40 at Human FXa.

In the case of `N=C(N)N1CCc2ccc(OCC3CCN(c4ccc(NC(=O)c5ccccc5)cn4)CC3)cc2C1` [Example 32, N-[2-[4-(2-Amidino-1,2,3,4-tetrahydroisoquinolin-7-yloxymethyl)-piperidin-1-yl]pyridin-5-yl]benzamide Dihydrochloride], the pIC50 is less than 5.00 at Human FIIa and 6.40 on Human FXa.

Take `CCOC(=O)/C=C/c1cnccc1N1CCC(COc2ccc3c(c2)CN(C(=N)N)CC3)CC1` [Example 33, 3-[4-[4-(2-Amidino-1,2,3,4-tetrahydroisoquinolin-7-yloxymethyl)-piperidin-1-yl]pyridin-3-yl]-2-propenoic Acid Ethyl Ester Dihydrochloride]: the pIC50 was less than 5.00 on Human FIIa and 6.52 at Human FXa.

`COC(=O)c1cnccc1N1CCC(COc2ccc3c(c2)CN(C(=N)N)CC3)CC1` [Example 34, 4-[4-(2-Amidino-1,2,3,4-tetrahydroisoquinolin-7-yloxymethyl)-piperidin-1-yl]pyridine-3-carboxylic Acid Methyl Ester Dihydrochloride]: the pIC50 was less than 5.00 at Human FIIa and 6.70 at Human FXa.

In the case of `N#CC1(CCOc2ccc3c(c2)CN(C(=N)N)CC3)CCN(c2ccncc2)CC1` [Example 37, 7-[2-[4-Cyano-1-(pyridin-4-yl)piperidin-4-yl]ethoxy]-1,2,3,4-tetrahydroisoquinoline-2-carboxamidine Dihydrochloride], the pIC50 at Human FIIa was less than 5.00; on Human FXa, 7.40.

As for `N=C(N)c1ccc2ccc(OCC3(C(=O)O)CCN(c4ccncc4)CC3)c(Cl)c2c1` [Example 39, 4-(2-Amidino-8-chloronaphthalen-7-yloxymethyl)-1-(pyridin-4-yl)piperidine-4-carboxylic Acid Dihydrochloride], the pIC50 at Human FIIa was less than 5.00; on Human FXa it was 6.30.

As for `CCOC(=O)C1(COc2ccc3ccc(C(=N)N)cc3c2)CCN(c2ccncc2)CC1` [Example 40, 4-(2-Amidinonaphthalen-7-yloxymethyl)-1-(pyridin-4-yl)piperidine-4-carboxylic Acid Ethyl Ester Dihydrochloride], the negative logarithm of the IC50 (pIC50) on Human FIIa was less than 5.00; on Human FXa, 6.30.

As for `N=C(N)N1CCc2ccc(SCC3(C(=O)O)CCN(c4ccncc4)CC3)cc2C1` [Example 43, 4-(2-Amidino-1,2,3,4-tetrahydroisoquinolin-7-ylthiomethyl)-1-(pyridin-4-yl)piperidine-4-carboxylic Acid Dihydrochloride], the pIC50 at Human FIIa was less than 5.00; on Human FXa it was 6.40.

For the compound `N=C(N)N1CCc2ccc(SCCC3(C(=O)O)CCN(c4ccncc4)CC3)cc2C1` [Example 44, 4-[2-(2-Amidino-1,2,3,4-tetrahydroisoquinolin-7-ylthio)ethyl]-1-(pyridin-4-yl)piperidine-4-carboxylic Acid Dihydrochloride], the results for the pIC50 on Human FIIa and at Human FXa were less than 5.00 and 6.15, respectively.

Take `CC(=N)N1CCC(Oc2ccc(OCc3nc4cc(C(=N)N)ccc4n3CC(=O)NC[C@H]3CC[C@H](C(=O)O)CC3)cc2)CC1` [Example 53, trans-4-[2-[4-(1-Acetimidoylpiperidin-4-yloxy)phenoxymethyl]-5-amidinobenzimidazol-1-ylacetylaminomethyl]cyclohexanecarboxylic Acid Dihydrochloride]: the pIC50 is less than 5.00 on Human FIIa and 6.30 on Human FXa.

Turning to `CCOC(=O)CCc1cnccc1N1CCC(COc2ccc3c(c2)CN(C(=N)N)CC3)CC1` [Example 88, 3-[4-[4-(2-Amidino-1,2,3,4-tetrahydroisoquinolin-7-yloxymethyl)piperidin-1-yl]pyridin-3-]propionic Acid Ethyl Ester Dihydrochloride], the pIC50 at Human FXa is 6.70.

`N=C(N)c1ccc2c(c1)nc(CN(C(=O)c1ccc(C(=O)O)cc1)c1ccc(OC3CCN(C(=N)NCc4ccccc4)CC3)cc1)n2CC(=O)NC1CCCCC1` [Example 110, N-[5-Amidino-1-(cyclohexylcarbamoylmethyl)benzimidazol-2-ylmethyl]-N-[4-[1-[amino(benzylinino)methyl]piperidin-4-yloxy]phenyl]carbamoylbenzoic Acid Dihydrochloride]: the pIC50 on Human FXa is 7.10.

As usually defined, the pIC50 is the IC50 on a negative log10 scale, so that one unit is a factor of ten.
